Assay results taken from patent publication US10906915B2, “Substituted pyrazoloazepin-4-ones and their use as phosphodiesterase inhibitors” (LEO Pharma A/S, priority 2016, dated 2021).

The compounds below were run against human PDE4D catalytic domain (UniProt no. Q08499) (Homo sapiens (Human), UniProt Q08499) (assay: PDE4 assay (TR-FRET, FAM-cAMP cleavage)). Conditions: human PDE4D catalytic domain; molar concentration giving 50% inhibition of substrate cleavage; read-out: PDE4 IC50 range.
Chain of human PDE4D catalytic domain (Q08499 380-740 limits assumed): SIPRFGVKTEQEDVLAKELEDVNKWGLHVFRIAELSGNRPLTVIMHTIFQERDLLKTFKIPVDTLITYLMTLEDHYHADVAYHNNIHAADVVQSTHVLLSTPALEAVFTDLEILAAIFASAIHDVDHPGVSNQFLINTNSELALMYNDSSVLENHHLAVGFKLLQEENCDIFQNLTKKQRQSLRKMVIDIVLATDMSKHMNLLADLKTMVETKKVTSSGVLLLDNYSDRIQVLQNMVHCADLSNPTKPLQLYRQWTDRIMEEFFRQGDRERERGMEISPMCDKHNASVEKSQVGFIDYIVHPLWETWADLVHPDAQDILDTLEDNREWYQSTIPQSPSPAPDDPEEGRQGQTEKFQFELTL
Format: biochemical
Summary of the method: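 PDE4D catalytic domain ([…]) was incubated with unlabelled cAMP plus FAM-cAMP and titrated compound, stopped with binding buffer of metal-ion nanoparticles and Tb donor. AMP generation read by TR-FRET; IC50 as 50% inhibition of cleavage versus controls, reported as nM ranges.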
Compound `CCc1nn(C[C@@H](C)COC(=O)c2ccc(S(C)(=O)=O)cc2)c2c1C(=O)NCC1(CCOCC1)C2` [Example 5, [(2R)-3-(3-ethyl-4-oxo-spiro[6,8-dihydro-5H-pyrazolo[4,3-c]azepine-7,4′-tetrahydro-pyran]-1-yl)-2-methyl-propyl] 4-methylsulfonylbenzoate] has an IC50 of less than 100 nM. With `CCc1nn(C[C@@H](C)COC(=O)c2cc(C(F)(F)F)ccc2F)c2c1C(=O)NCC1(CCOCC1)C2` [Example 220, [(2R)-3-(3-ethyl-4-oxo-spiro[6,8-dihydro-5H-pyrazolo[4,3-c]azepine-7,4′-tetrahydropyran]-1-yl)-2-methyl-propyl] 2-fluoro-5-(trifluoromethyl)benzoate] the IC50 was less than 100 nM. In the case of `CCc1nn(C[C@@H](C)COC(=O)c2ccc(Cl)cc2C(F)(F)F)c2c1C(=O)NCC1(CCOCC1)C2` [Example 236, [(2R)-3-(3-ethyl-4-oxo-spiro[6,8-dihydro-5H-pyrazolo[4,3-c]azepine-7,4′-tetrahydropyran]-1-yl)-2-methyl-propyl] 4-chloro-2-(trifluoromethyl)benzoate], the IC50 is reported as less than 100 nM. In the case of `CCc1nn(CCCOC(=O)C2CCC(OC)CC2)c2c1C(=O)NCC1(CCOCC1)C2` (stereo not shown) [Example 48, 3-(3-ethyl-4-oxo-spiro[6,8-dihydro-5H-pyrazolo[4,3-c]azepine-7,4′-tetrahydropyran]-1-yl)propyl 4-methoxycyclohexane-carboxylate], the IC50 is reported as 100 to 500 nM. `CCc1nn(CCCOC(=O)c2ccc(F)c(Cl)c2)c2c1C(=O)NCC1(CCOCC1)C2` [Example 84, 3-(3-ethyl-4-oxo-spiro[6,8-dihydro-5H-pyrazolo[4,3-c]azepine-7,4′-tetrahydropyran]-1-yl)propyl 3-chloro-4-fluoro-benzoate] gave an IC50 of less than 100 nM. For `CCc1nn(CCCOC(=O)c2cccc(C(=O)N3CCN(C(C)=O)CC3)c2)c2c1C(=O)NCC1(CCOCC1)C2` [Example 159, 3-(3-ethyl-4-oxo-spiro[6,8-dihydro-5H-pyrazolo[4,3-c]azepine-7,4′-tetrahydropyran]-1-yl)propyl 3-(4-acetylpiperazine-1-carbonyl)benzoate], the IC50 was less than 100 nM. In the case of `CCc1nn(CCCOC(=O)c2ccc(OC)c(C(F)(F)F)c2)c2c1C(=O)NCC1(CCOCC1)C2` [Example 118, 3-(3-ethyl-4-oxo-spiro[6,8-dihydro-5H-pyrazolo[4,3-c]azepine-7,4′-tetrahydropyran]-1-yl)propyI 4-methoxy-3-(trifluoromethyl)benzoate], the IC50 is reported as less than 100 nM. With `CCc1nn(CCCOC(=O)c2ccc(C(F)(F)F)cc2F)c2c1C(=O)NCC1(CCOCC1)C2` [Example 113, 3-(3-ethyl-4-oxo-spiro[6,8-dihydro-5H-pyrazolo[4,3-c]azepine-7,4′-tetrahydropyran]-1-yl)propyl 2-fluoro-4-(trifluoromethyl)benzoate] the IC50 was less than 100 nM. Work on `CCc1nn(C[C@@H](C)COC(=O)c2ccc(Cl)c(F)c2)c2c1C(=O)NCC1(CCOCC1)C2` [Example 199, [(2R)-3-(3-ethyl-4-oxo-spiro[6,8-dihydro-5H-pyrazolo[4,3-c]azepine-7,4′-tetrahydropyran]-1-yl)-2-methyl-propyl] 4-chloro-3-fluoro-benzoate] yielded an IC50 of less than 100 nM. With `CCc1nn(CCCOC(=O)c2ccc(S(=O)(=O)NC)cc2)c2c1C(=O)NCC1(CCOCC1)C2` [Example 117, 3-(3-ethyl-4-oxo-spiro[6,8-dihydro-5H-pyrazolo[4,3-c]azepine-7,4′-tetrahydropyran]-1-yl)propyl 4-(methylsulfamoyl) benzoate] the IC50 was less than 100 nM. In the case of `CCc1nn(C[C@@H](C)COC(=O)c2cccc(F)c2Cl)c2c1C(=O)NCC1(CCOCC1)C2` [Example 201, [(2R)-3-(3-ethyl-4-oxo-spiro[6,8-dihydro-5H-pyrazolo[4,3-c]azepine-7,4′-tetrahydropyran]-1-yl)-2-methyl-propyl] 2-chloro-3-fluoro-benzoate], the IC50 is reported as less than 100 nM. `CCc1nn(CCCOC(=O)c2ccc(S(N)(=O)=O)cc2)c2c1C(=O)NCC1(CCOCC1)C2` [Example 101, 3-(3-ethyl-4-oxo-spiro[6,8-dihydro-5H-pyrazolo[4,3-c]azepine-7,4′-tetrahydropyran]-1-yl)propyl 4-sulfamoylbenzoate] was tested, and the IC50 was less than 100 nM. In the case of `CCc1nn(CCCOC(=O)C(C)C)c2c1C(=O)NCC1(CCOCC1)C2` [Example 7, 3-(3-ethyl-4-oxo-spiro[6,8-dihydro-5H-pyrazolo[4,3-c]azepine-7,4′-tetrahydropyran]-1-yl)propyl 2-methylpropanoate], the IC50 is reported as 100 to 500 nM. `CCc1nn(C[C@@H](C)COC(=O)c2cccc(OC)c2)c2c1C(=O)NCC1(CCOCC1)C2` [Example 171, [(2R)-3-(3-ethyl-4-oxo-spiro[6,8-dihydro-5H-pyrazolo[4,3-c]azepine-7,4′-tetrahydropyran]-1-yl)-2-methyl-propyl] 3-methoxybenzoate] was tested, and the IC50 was less than 100 nM. `CCc1nn(C[C@@H](C)COC(=O)c2c(F)cccc2Cl)c2c1C(=O)NCC1(CCOCC1)C2` [Example 203, [(2R)-3-(3-ethyl-4-oxo-spiro[6,8-dihydro-5H-pyrazolo[4,3-c]azepine-7,4′-tetrahydropyran]-1-yl)-2-methyl-propyl] 2-chloro-6-fluoro-benzoate] gave an IC50 of less than 100 nM. In the case of `CCc1nn(C[C@@H](C)COC(=O)c2ccc(F)cc2C(F)(F)F)c2c1C(=O)NCC1(CCOCC1)C2` [Example 222, [(2R)-3-(3-ethyl-4-oxo-spiro[6,8-dihydro-5H-pyrazolo[4,3-c]azepine-7,4′-tetrahydropyran]-1-yl)-2-methyl-propyl] 4-fluoro-2-(trifluoromethyl)benzoate], the IC50 is reported as less than 100 nM. Compound `CCc1nn(C[C@@H](C)COC(=O)c2cccc(F)c2)c2c1C(=O)NCC1(CCOCC1)C2` [Example 165, [(2R)-3-(3-ethyl-4-oxo-spiro[6,8-dihydro-5H-pyrazolo[4,3-c]azepine-7,4′-tetrahydropyran]-1-yl)-2-methyl-propyl] 3-fluorobenzoate] has an IC50 of less than 100 nM.

Same assay, conditions: read-out: PDE4 IC50 range
Compound `CCc1nn(C[C@@H](C)COC(=O)c2cccc(C(=O)NC(C)C)c2)c2c1C(=O)NCC1(CCOCC1)C2` [Example 267, [(2R)-3-(3-ethyl-4-oxo-spiro[6,8-dihydro-5H-pyrazolo[4,3-c]azepine-7,4′-tetrahydropyran]-1-yl)-2-methyl-propyl] 3-(isopropylcarbamoyl)benzoate] has an IC50 of less than 100 nM. `CCc1nn(CC(C)(C)COC(=O)c2ccc(F)cc2)c2c1C(=O)NCC1(CCOCC1)C2` [Example 285, [3-(3-ethyl-4-oxo-spiro[6,8-dihydro-5H-pyrazolo[4,3-c]azepine-7,4′-tetrahydropyran]-1-yl)-2,2-dimethyl-propyl] 4-fluorobenzoate] showed an IC50 of less than 100 nM. In the case of `CCc1nn(CCCCOC(=O)c2ccc(S(=O)(=O)NC)cc2)c2c1C(=O)NCC1(CCOCC1)C2` [Example 373, 4-(3-ethyl-4-oxo-spiro[6,8-dihydro-5H-pyrazolo[4,3-c]azepine-7,4′-tetrahydropyran]-1-yl)butyl 4-(methylsulfamoyl)benzoate], the IC50 is reported as 100 to 500 nM. Compound `CCc1nn(C[C@@H](C)COC(=O)c2cccc(C(=O)N(C)C)c2)c2c1C(=O)NCC1(CCOCC1)C2` [Example 266, [(2R)-3-(3-ethyl-4-oxo-spiro[6,8-dihydro-5H-pyrazolo[4,3-c]azepine-7,4′-tetrahydropyran]-1-yl)-2-methyl-propyl] 3-(dimethylcarbamoyl)benzoate] has an IC50 of less than 100 nM. `CCc1nn(C[C@@H](C)COC(=O)c2cccc(C(=O)N3CCNCC3)c2)c2c1C(=O)NCC1(CCOCC1)C2` [Example 270, [(2R)-3-(3-ethyl-4-oxo-spiro[6,8-dihydro-5H-pyrazolo[4,3-c]azepine-7,4′-tetrahydropyran]-1-yl)-2-methyl-propyl] 3-(piperazine-1-carbonyl)benzoate] was tested, and the IC50 was less than 100 nM.
